# Source: US9863938B2, “Synthetic antibodies” (ARIZONA BOARD OF REGENTS, A BODY CORPORATE OF THE STATE OF …, priority 2006, dated 2018)
# Where two headings read alike, the source gives them in different places. Bridge positions count the residues as written; N and C are the ends. Ends that are not written are not given here. I, II: the chains in the order shown.
# Assays:
# transferrin [1] = biological target: T1, transferrin (Homo sapiens, UniProt P02787); assay: SPR steady-state solution phase KD of candidate affinity elements, transferrin immobilized on Biacore T100 chip; format: binding
# T1 sequence (P02787 20-698, species assumed): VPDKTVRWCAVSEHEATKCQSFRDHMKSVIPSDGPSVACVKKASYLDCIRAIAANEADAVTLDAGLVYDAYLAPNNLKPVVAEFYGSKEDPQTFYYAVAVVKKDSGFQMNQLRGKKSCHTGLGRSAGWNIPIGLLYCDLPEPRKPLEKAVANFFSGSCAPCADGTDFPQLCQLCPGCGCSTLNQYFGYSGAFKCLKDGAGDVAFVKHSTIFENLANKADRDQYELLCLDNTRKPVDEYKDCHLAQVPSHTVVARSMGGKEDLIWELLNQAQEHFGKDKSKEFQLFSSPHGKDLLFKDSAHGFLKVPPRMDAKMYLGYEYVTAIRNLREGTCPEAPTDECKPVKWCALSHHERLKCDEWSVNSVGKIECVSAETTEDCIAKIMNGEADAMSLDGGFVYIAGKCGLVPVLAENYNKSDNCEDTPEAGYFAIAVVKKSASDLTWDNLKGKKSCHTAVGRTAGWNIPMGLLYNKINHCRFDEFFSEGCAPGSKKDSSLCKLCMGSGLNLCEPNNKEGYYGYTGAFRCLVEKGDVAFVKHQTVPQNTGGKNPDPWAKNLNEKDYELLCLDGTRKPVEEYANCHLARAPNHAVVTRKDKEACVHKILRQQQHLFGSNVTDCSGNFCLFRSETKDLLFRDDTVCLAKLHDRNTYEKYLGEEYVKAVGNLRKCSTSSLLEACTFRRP
# Protocol: Transferrin was immobilized by amine-coupling to the carboxyl-functionalized surface of a Biacore T100 CMS Dextran SPR chip as illustrated in FIG. 11. A 1:1 mixture of EDC (0.4M 1-ethyl-3-(3-dimethylaminopropyl)-carbodiimide in water) and NHS (0.1M N-hydroxysuccinimide in water) was applied 300 at a flow rate of 5 to 10 μl/min for a contact time of about 6 to 10 minutes to activate the surface by conjugating […] 306 to the surface-exposed carboxyl groups. Transferrin 25 μg/ml in immobilization buffer selected for correct pH was then applied 302 at a flow rate of 5 to 10 μl/min for a contact time of about 5 to 10 minutes, allowing the amine functionality on the transferrin 308 to displace the activated NHS ester and bond to the surface via an amide bond. Finally, ethylene diamine (1 M ethylene diamine-HCl at pH 8.5) was applied at a flow rate of 5 to 10 μl/min for a contact time of about 6 to 7 minutes to deactivate any remaining reactive groups on the dextran chip surface. Flow rates and contact times are adjusted as necessary to provide the surface concentration of target desired for the intended application, and may vary by target. In general, for evaluating whether binding occurs, it is preferable to immobilize a relatively large quantity of target, and higher flow rates and/or longer contact times may be used. For determining kinetics, it is preferable to limit the amount of target immobilized so as to minimize rebinding and avidity effects, and lower flow rates and/or contact times may be used.
# Candidate affinity elements for the transferrin synbody TRF 19 (SEQ ID NO: 1), TRF21 (SEQ ID NO: 3), TRF23 (SEQ ID NO: 5), TRF24 (SEQ ID NO: 6), TRF25 (SEQ ID NO: 7), and TRF26 (SEQ ID NO: 8) were individually evaluated for solution phase KD with respect to transferrin by SPR analysis. Because the off rates for these polypeptides were very high, KD values were estimated by measuring steady-state response for at least five concentrations in a two-fold dilution series, each concentration tested in duplicate. For each experiment, response data were processed using a reference surface to correct for bulk refractive index changes and any nonspecific binding. Data were also double referenced using responses from blank running buffer injections. Each experiment was conducted at 25° C. using PBST (0.01M Phosphate Buffered Saline, 0.138M NaCl, 0.0027M KCl, 0.05% surfactant Tween20, pH 7.4) as the running buffer on a Biacore T100 instrument. Analytes were injected for 60 s at a flow rate of 30 μl/min. The antigen surfaces were regenerated with 30 s consecutive pulses of NaOH/NaCl (50 mM NaOH in IM NaCl) and Glycine (10 mM glycine —HCl, pH 2.5).
# transferrin [2] = biological target: T1, transferrin; assay: SPR analysis of 1:1 polypeptide pairs for binding to distinct sites on immobilized target; details: SPR response of pair mixture versus single polypeptides
# Text: The transferrin target was immobilized on a Biacore T100 SPR chip, and candidate polypeptides were applied in 1:1 mixtures in pairs and response data obtained, in accordance with the methods described in Example 4 above.
# human α-thrombin = biological target: T2, human α-thrombin (Homo sapiens, UniProt P00734); assay: ELISA-type assay on wells coated with thrombin; format: binding; details: read-out: Dissociation constant estimated
# T2 construct: concentrations of human α-thrombin ranging from 0 to 100 nM
# Protocol: Binding to thrombin was evaluated in an ELISA-type assay. Wells of a 96 well plate were coated with 100 μL of 30 μg/mL human α-thrombin and incubated at 4 C overnight. The plate was washed twice with DDI H2O and passivated with 3% BSA in IX PBS buffer for 1 hour. The plate was shaken out and 50 μL of varying concentrations of analyte (DNA tile synbody, DNA tile with each aptamer with the other not present, and each aptamer alone, respectively) were incubated at RT for 1 hour. DNA tiles were biotin-modified at the 5′ end of one of the distal DNA strands 346 (see FIG. 26(a)). The plate was rinsed 10 times in IXPBS and 50 μL of 1:1000 dilution of streptavidin-HRP in 0.1% BSA in IX PBS was pipetted and incubated for 1 hour at RT. The plate was again rinsed and 50 μL of TMB was added and incubated at RT for 15 minutes. 50 μL of 0.5M HCl was added and the plate was read immediately. Results are shown in FIG. 27 for the DNA tile synbody 350; the DNA tile with Apt1 (SEQ ID NO: 20) but not Apt2 (SEQ ID NO: 21) present 352; the DNA tile with Apt2 but not Apt1 (SEQ ID NO: 20) present 356; Apt1 (SEQ ID NO: 20) alone 354; and Apt2 (SEQ ID NO: 21) alone 358. Dissociation constant values estimated from this assay were about 1 nM for the DNA tile synbody, about 10 nM for Apt1 (SEQ ID NO: 20) alone, and more than 1 μM for Apt2 (SEQ ID NO: 21) alone.
# [3] = tested on: 8,000 human proteins (GST fusion); assay: Invitrogen Protoarray Human Protein Microarray (8,000 features), fluorescence intensity of bound ligand; format: binding
# Protocol: Two biotinylated anti-TRF synbodies (SYN23-26 and SYN 21-22) were applied to a protein microarray having 8,000 features (Invitrogen Protoarray Human Protein Microarray v. 4.0 for immune response biomarker profiling), each feature comprising a distinct human protein (GST fusion) adsorbed to a nitrocellulose coated slide. Application of the synbodies to the microarray was performed in accordance with manufacturer instructions: (see ProtoArray Human Protein Microarray, Invitrogen, Catalog no. PAH052401, Version B, 15 Dec. 2006, 25-0970, Users Manual.) After blocking the array with 1% BSA/PBS/0.1% Tween for 1 hour at 4 C with gentle shaking, 120 μl of probing buffer (1×PBS, 5 mM mgCl2, 0.5 mM DTT, 0.05% Triton X-100, 5% glycerol, 1% BSA) with synbody was applied to the array. The prescribed cover slip was placed over the array and adjusted to remove air bubbles. The array was incubated in a 50 ml conical tube, printed side up, for 1.5 hours at 4 C without shaking The array was then removed from the conical tube inserted diagonally into the array chamber, kept on ice. 8 ml probing buffer was added to the chamber wall. The cover slip was removed and the array was incubated in probing buffer for 1 minute on ice. […] The array was dried in the dark for 60 minutes at room temperature, after which it was scanned using a fluorescent microarray scanner and data was taken and analyzed.
# [4] = estimated from steady-state SPR response, 25° C., PBST pH 7.4, read-out: Solution Phase KD
# [5] = restates Table 3, read-out: solution phase affinities for transferrin, range of KD
substance,measurement,setting,value
FRGWAHIFFGPHVIYRGGSC [TRF23],Kd,transferrin [1]; [4],~50 µM
same,Kd,transferrin [1]; [5],50 to 100 µM
same,binding to distinct sites on target,transferrin [2],bind distinct sites on transferrin
AHKVVPQRQIRHAYNRYGSC [TRF26],Kd,transferrin [1]; [5],50 to 100 µM
same,binding to distinct sites on target,transferrin [2],bind distinct sites on transferrin
APYAPQQIHYWSTLGFKGSC [TRF25],Kd,transferrin [1]; [4],~60 µM
QYHHFMNLKRQGRAQAYGSC [TRF21],Kd,transferrin [1]; [4],~60 µM
5′-GGTTGGTGTGGTTGG-3′ [Apt2],Kd,human α-thrombin,> 1000 nM
5′-AGTCCGTGGTAGGGCAGGTTGGGGTGACT-3′ [Apt1],Kd,human α-thrombin,~10 nM
I: H-FRGWAHIFFGPHVIYRGGSGKC / II: H-AHKVVPQRQIRHAYNRYGSG (amide I:21-II:C) [SYN23-26],"highest affinity target from library of 8,000",[3],PCCA
same,targets bound with intensities higher than that of 1C10 for TRF,[3],seven targets
